Columns and labels:
PSMA = target: T1, PSMA (Homo sapiens, UniProt Q04609); assay: Competitive binding (IC50) on LNCaP cells vs ([125I]I-BA)KuE; settings: 1 h, 4 °C, n = 5-9, read-out: IC50 (binding affinity)
T1 construct: host or cells: LNCaP cells
Protocol: (§1) Competitive binding studies were determined on LNCaP cells (1.5 × 10^5 cells in 1 mL/well) after incubation at 4 °C for 1 h, using (((S)-1-carboxy-5-(4-([^125I]iodo)benzamido)pentyl)carbamoyl)-L-glutamic acid (([^125I]I-BA)KuE; 0.2 nM/well) as reference radioligand (n = 5–9). Internalization studies of the radiolabeled ligands (0.5 nM/well) were performed on LNCaP cells (1.25 × 10^5 cells in 1 mL/well) at 37 °C for 1 h and accompanied by ([^125I]I-BA)KuE (0.2 nM/well), as reference. Data were corrected for non-specific binding and normalized to the specific internalization observed for the reference (n = 3–6). A detailed description of the experimental procedures was previously published.

LNCaP cells = assay: Internalization into LNCaP cells relative to ([125I]I-BA)KuE; format: cell-based; settings: 1 h, 37 °C, percentage of reference ligand ([125I]I-BA)KuE, n = 3-6
Protocol: as §1

human serum albumin = target: T2, human serum albumin (Homo sapiens, UniProt P02768); assay: Human serum albumin binding on Chiralpak HSA column; format: in vitro ADME
T2 construct: purchased
T2 sequence (P02768 25-609): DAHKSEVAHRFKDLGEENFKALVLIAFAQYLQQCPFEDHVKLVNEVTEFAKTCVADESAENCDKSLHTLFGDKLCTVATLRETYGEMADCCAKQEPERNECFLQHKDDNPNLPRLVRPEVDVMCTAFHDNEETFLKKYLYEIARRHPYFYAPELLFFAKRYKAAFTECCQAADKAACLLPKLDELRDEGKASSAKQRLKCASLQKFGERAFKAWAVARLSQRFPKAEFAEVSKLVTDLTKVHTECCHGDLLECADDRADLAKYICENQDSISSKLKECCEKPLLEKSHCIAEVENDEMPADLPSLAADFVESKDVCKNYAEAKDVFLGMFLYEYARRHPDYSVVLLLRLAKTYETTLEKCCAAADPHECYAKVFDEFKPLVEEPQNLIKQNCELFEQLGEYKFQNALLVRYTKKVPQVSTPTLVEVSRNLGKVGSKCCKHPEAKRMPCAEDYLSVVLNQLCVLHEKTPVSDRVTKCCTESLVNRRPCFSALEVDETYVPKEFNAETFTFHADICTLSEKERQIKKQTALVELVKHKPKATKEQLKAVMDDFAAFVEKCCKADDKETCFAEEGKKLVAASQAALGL
Protocol: Approximately 1 MBq of the ^18F-ligand was dissolved in 1 mL of a 1:1 mixture (v/v) of phosphate-buffered saline (PBS, pH 7.4) and n-octanol (n = 18–23). After vigorous mixing of the suspension for 3 min, the vial was centrifuged at 15,000 × g for 3 min and 100 μL aliquots of both layers were measured in a γ-counter. HSA binding of ^19F-^natGa-rhPSMA ligands was determined according to a previously published procedure.

[1] = tested on: LNCaP tumor-bearing male CB-17 SCID mice; assay: Biodistribution 1 h p.i.; format: in vivo
Protocol: (§2) LNCaP tumor xenografts were established in 6–8 weeks old male CB-17 SCID mice as described previously.
(§3) 1–3 MBq (0.2 nmol) of the [^18F, ^natGa]rhPSMA inhibitors were injected into the tail vein of LNCaP tumor-bearing male CB-17 SCID mice that were sacrificed 1 h post injection (p.i.) (n = 4 for 7.1, n = 5 for 7.2, n = 4 for 7.3, n = 5 for 7.4 and n = 3 for 7). Selected organs were removed, weighed, and measured in a γ-counter. For competition studies, 8 mg/kg of 2-PMPA (2-(Phosphonomethyl)-pentandioic acid) were co-administered (n = 3).

[2] = tested on: LNCaP tumor-bearing male CB-17 SCID mice; assay: Biodistribution 1 h p.i. with competition (co-injection of 2-PMPA); format: in vivo; settings: co-injected with 2-PMPA (8 mg/kg), n = 3
Protocol: as §2, §3

LNCaP tumor-bearing mice = assay: Differential uptake and excretion pattern of isomers after injection of the diastereomeric mixture (radio-HPLC); format: in vivo; settings: blood, liver, kidney and tumor, 30 min p.i., n = 4
Protocol: With the intention to identify even marginal differences in the in vivo behavior, all four [^18F, ^natGa]rhPSMA-7 isomers were co-evaluated in one single tumor-bearing mouse in order to quantify the differential uptake and excretion pattern of each isomer. For this purpose, the diastereomeric mixture [^18F, ^natGa]rhPSMA-7 was produced in high molar activity (AM) of 247–349 GBq/µmol (at end of synthesis) and the abundance of each isomer was determined by radio-HPLC. Mice (n = 4) were injected with [^18F, ^natGa]rhPSMA-7 (180–280 MBq, 0.9–1.0 nmol) and left under anesthesia. After 30 min p.i., they were sacrificed and urine, blood, liver, kidneys and tumor were collected and processed. Radioactivity was extracted from solid tissues by means of a Potter–Elvehjem tissue grinder (n = 1) or a ball mill (n = 3) and separated from the protein fraction by subsequent cartridge-based solid-phase extraction (SPE). Blood samples were diluted, centrifuged and the supernatant was purified by SPE (see supporting information). Urine and extracts from tissue samples were then analyzed by radio-HPLC to quantify the fraction of each isomer in each sample. Finally, the relative percentage difference between the abundance of each isomer in the injected diastereomeric mixture (values taken from the quality control) and the abundance of the respective isomer in each analyzed tissue or body fluid was calculated. […] PeakFit allows for automated nonlinear separation, analysis and quantification of HPLC elution profiles by deconvolution procedures that uses a Gaussian response function with a Fourier deconvolution/filtering algorithm (see Additional file 1: Fig. 7).
Extraction via the Potter-Elvehjem Tissue Grinder. Tumor and kidneys were separately homogenized in the tissue homogeniser with 1 mL of extraction buffer (850 μL 1 M HEPES pH 7.4, 100 μL 20 mM PMPA and 100 μL 1 M NaCl) for 30 min. The resulting homogenate was collected and centrifuged at 13000×g for 5 min. Subsequently, the supernatant was collected, centrifuged again (13000×g, 5 min) and loaded on a Strata X cartridge (33 μm Polymeric Reversed Phase 500 mg) preconditioned with 5 mL MeOH, followed by 5 mL H2O. After washing with 5 mL H2O, the cartridge was eluted with a 3:2 mixture (v/v) of MeCN in H2O supplemented with 1% TFA. For radio-HPLC analysis the eluates were diluted with water.
Extraction via the MM-400 Ball Mill. The samples (tumor, kidney, liver) were separately homogenized in a 2 mL tube together with 3 grinding balls (3 mm diameter) and 1 mL of extraction buffer (850 μL 1 M HEPES pH 7.4, 100 μL 20 mM PMPA and 100 μL 1 M NaCl) for 10 min at 30 Hz. The homogenate was centrifuged at 13 000×g for 5 min and the supernatant was collected. […]

T1 sequence (Q04609 whole entry): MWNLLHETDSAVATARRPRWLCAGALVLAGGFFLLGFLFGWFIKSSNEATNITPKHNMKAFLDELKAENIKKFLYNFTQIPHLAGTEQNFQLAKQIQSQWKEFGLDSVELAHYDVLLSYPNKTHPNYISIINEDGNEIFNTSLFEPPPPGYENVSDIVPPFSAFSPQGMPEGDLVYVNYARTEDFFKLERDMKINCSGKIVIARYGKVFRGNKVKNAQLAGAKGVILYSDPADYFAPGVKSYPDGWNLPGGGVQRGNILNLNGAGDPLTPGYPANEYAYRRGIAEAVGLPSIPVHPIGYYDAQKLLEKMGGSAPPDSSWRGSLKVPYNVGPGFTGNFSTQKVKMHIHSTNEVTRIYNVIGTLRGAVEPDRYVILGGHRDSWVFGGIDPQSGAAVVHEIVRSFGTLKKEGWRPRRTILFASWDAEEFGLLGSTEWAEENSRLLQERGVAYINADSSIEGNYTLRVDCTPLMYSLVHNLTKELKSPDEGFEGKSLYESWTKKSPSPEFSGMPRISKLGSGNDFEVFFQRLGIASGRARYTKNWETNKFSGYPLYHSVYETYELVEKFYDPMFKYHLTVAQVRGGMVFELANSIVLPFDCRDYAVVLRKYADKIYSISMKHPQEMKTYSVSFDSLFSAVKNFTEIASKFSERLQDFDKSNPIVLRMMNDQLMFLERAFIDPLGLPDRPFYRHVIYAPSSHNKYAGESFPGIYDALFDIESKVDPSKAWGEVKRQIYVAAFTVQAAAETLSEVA

SMILES	IC50 (PSMA)	Internalization (internalized activity) (LNCaP cells)	HSA-binding (human serum albumin)	Biodistribution Adrenals [1]	Biodistribution Blood [1]	Biodistribution Bone [1]	Biodistribution Heart [1]	Biodistribution Intestine [1]	Biodistribution Kidneys [1]	Biodistribution Liver [1]	Biodistribution Lung [1]	Biodistribution Muscle [1]	Biodistribution Pancreas [1]	Biodistribution Spleen [1]	Biodistribution Stomach [1]	Biodistribution Tumor [1]	Biodistribution Adrenals [2]	Biodistribution Blood [2]	Biodistribution Bone [2]	Biodistribution Heart [2]	further results
CC(C)(C)[Si](F)(c1ccc(C(=O)NC[C@@H](NC(=O)CC[C@H](C(=O)O)N2CCN(CC(=O)[O-])CCN(CC(=O)[O-])CCN(CC(=O)[O-])CC2)C(=O)N[C@H](CCCCNC(=O)CCC(=O)NCCC[C@@H](NC(=O)CC[C@H](NC(=O)N[C@@H](CCC(=O)O)C(=O)O)C(=O)O)C(=O)O)C(=O)O)cc1)C(C)(C)C.[Ga+3] [[^18F, ^natGa]rhPSMA-7.1]	6.9 ± 1.4 nM	–	–	–	–	–	–	–	–	–	–	–	–	–	–	–	–	–	–	–	–
CC(C)(C)[Si](F)(c1ccc(C(=O)NC[C@H](NC(=O)CC[C@H](C(=O)O)N2CCN(CC(=O)[O-])CCN(CC(=O)[O-])CCN(CC(=O)[O-])CC2)C(=O)N[C@H](CCCCNC(=O)CCC(=O)NCCC[C@@H](NC(=O)CC[C@H](NC(=O)N[C@@H](CCC(=O)O)C(=O)O)C(=O)O)C(=O)O)C(=O)O)cc1)C(C)(C)C.[Ga+3] [[^18F, ^natGa]rhPSMA-7.2]	3.7 ± 1 nM	–	–	–	–	–	–	–	–	–	–	–	–	–	–	–	–	–	–	–	–
CC(C)(C)[Si]([18F])(c1ccc(C(=O)NC[C@H](NC(=O)CC[C@H](C(=O)O)N2CCN(CC(=O)[O-])CCN(CC(=O)[O-])CCN(CC(=O)[O-])CC2)C(=O)N[C@H](CCCCNC(=O)CCC(=O)NCCC[C@@H](NC(=O)CC[C@H](NC(=O)N[C@@H](CCC(=O)O)C(=O)O)C(=O)O)C(=O)O)C(=O)O)cc1)C(C)(C)C.[Ga+3] [[^18F, ^natGa]rhPSMA-7.2]	–	192 ± 16 % of reference	98%	1.3 ± 0.8 % ID/g	0.56 ± 0.20 % ID/g	0.31 ± 0.24 % ID/g	0.32 ± 0.13 % ID/g	0.18 ± 0.07 % ID/g	87.6 ± 28.8 % ID/g	0.35 ± 0.08 % ID/g	0.89 ± 0.38 % ID/g	0.13 ± 0.07 % ID/g	0.21 ± 0.08 % ID/g	10.1 ± 6.3 % ID/g	0.19 ± 0.08 % ID/g	6.5 ± 2.3 % ID/g	0.07 ± 0.10 % ID/g	1.1 ± 0.31 % ID/g	0.57 ± 0.39 % ID/g	0.47 ± 0.09 % ID/g	Biodistribution Intestine [2]: 0.33 ± 0.10 % ID/g; Biodistribution Kidneys [2]: 10.9 ± 1.0 % ID/g; Biodistribution Liver [2]: 0.46 ± 0.07 % ID/g; Biodistribution Lung [2]: 1.1 ± 0.32 % ID/g; Biodistribution Muscle [2]: 0.09 ± 0.03 % ID/g; Biodistribution Pancreas [2]: 0.12 ± 0.05 % ID/g; Biodistribution Spleen [2]: 0.26 ± 0.07 % ID/g; Biodistribution Stomach [2]: 0.21 ± 0.06 % ID/g; Biodistribution Tumor [2]: 1.0 ± 0.13 % ID/g; Abundance (enrichment) of the isomer in tissue compared to time point of injection (LNCaP tumor-bearing mice): lowest enrichment in blood, liver and kidney, but also the lowest uptake by tumors
CC(C)(C)[Si](F)(c1ccc(C(=O)NC[C@@H](NC(=O)CC[C@@H](C(=O)O)N2CCN(CC(=O)[O-])CCN(CC(=O)[O-])CCN(CC(=O)[O-])CC2)C(=O)N[C@H](CCCCNC(=O)CCC(=O)NCCC[C@@H](NC(=O)CC[C@H](NC(=O)N[C@@H](CCC(=O)O)C(=O)O)C(=O)O)C(=O)O)C(=O)O)cc1)C(C)(C)C.[Ga+3] [[^18F, ^natGa]rhPSMA-7.3]	4.4 ± 1.1 nM	–	–	–	–	–	–	–	–	–	–	–	–	–	–	–	–	–	–	–	–
CC(C)(C)[Si]([18F])(c1ccc(C(=O)NC[C@@H](NC(=O)CC[C@@H](C(=O)O)N2CCN(CC(=O)[O-])CCN(CC(=O)[O-])CCN(CC(=O)[O-])CC2)C(=O)N[C@H](CCCCNC(=O)CCC(=O)NCCC[C@@H](NC(=O)CC[C@H](NC(=O)N[C@@H](CCC(=O)O)C(=O)O)C(=O)O)C(=O)O)C(=O)O)cc1)C(C)(C)C.[Ga+3] [[^18F, ^natGa]rhPSMA-7.3]	–	161 ± 9 % of reference	97%	2.2 ± 0.83 % ID/g	0.96 ± 0.24 % ID/g	0.38 ± 0.32 % ID/g	0.87 ± 0.17 % ID/g	0.35 ± 0.07 % ID/g	292 ± 45.1 % ID/g	0.69 ± 0.13 % ID/g	2.2 ± 0.35 % ID/g	0.33 ± 0.15 % ID/g	0.63 ± 0.44 % ID/g	16.6 ± 2.6 % ID/g	0.44 ± 0.23 % ID/g	18.3 ± 7.2 % ID/g	0.07 ± 0.09 % ID/g	0.55 ± 0.14 % ID/g	0.34 ± 0.22 % ID/g	0.26 ± 0.04 % ID/g	Biodistribution Intestine [2]: 0.94 ± 0.97 % ID/g; Biodistribution Kidneys [2]: 15.5 ± 2.2 % ID/g; Biodistribution Liver [2]: 0.46 ± 0.14 % ID/g; Biodistribution Lung [2]: 0.69 ± 0.10 % ID/g; Biodistribution Muscle [2]: 0.09 ± 0.02 % ID/g; Biodistribution Pancreas [2]: 0.11 ± 0.02 % ID/g; Biodistribution Spleen [2]: 0.35 ± 0.02 % ID/g; Biodistribution Stomach [2]: 0.76 ± 0.74 % ID/g; Biodistribution Tumor [2]: 1.5 ± 0.4 % ID/g; Abundance (enrichment) of the isomer in tissue compared to time point of injection (LNCaP tumor-bearing mice): higher
CC(C)(C)[Si](F)(c1ccc(C(=O)NC[C@H](NC(=O)CC[C@@H](C(=O)O)N2CCN(CC(=O)[O-])CCN(CC(=O)[O-])CCN(CC(=O)[O-])CC2)C(=O)N[C@H](CCCCNC(=O)CCC(=O)NCCC[C@@H](NC(=O)CC[C@H](NC(=O)N[C@@H](CCC(=O)O)C(=O)O)C(=O)O)C(=O)O)C(=O)O)cc1)C(C)(C)C.[Ga+3] [[^18F, ^natGa]rhPSMA-7.4]	3.6 ± 0.7 nM	–	–	–	–	–	–	–	–	–	–	–	–	–	–	–	–	–	–	–	–

From article PMC7721954, “Preclinical comparison of four [^18F, ^natGa]rhPSMA-7 isomers: influence of the stereoconfiguration on pharmacokinetics” (EJNMMI Research, 2020)
